Activity calls are given as the source filed them.
Assays:
[1] = biological target: T1, Apoptotic protease-activating factor 1 (Homo sapiens, UniProt O14727); assay type: functional
T1 sequence (O14727 whole entry): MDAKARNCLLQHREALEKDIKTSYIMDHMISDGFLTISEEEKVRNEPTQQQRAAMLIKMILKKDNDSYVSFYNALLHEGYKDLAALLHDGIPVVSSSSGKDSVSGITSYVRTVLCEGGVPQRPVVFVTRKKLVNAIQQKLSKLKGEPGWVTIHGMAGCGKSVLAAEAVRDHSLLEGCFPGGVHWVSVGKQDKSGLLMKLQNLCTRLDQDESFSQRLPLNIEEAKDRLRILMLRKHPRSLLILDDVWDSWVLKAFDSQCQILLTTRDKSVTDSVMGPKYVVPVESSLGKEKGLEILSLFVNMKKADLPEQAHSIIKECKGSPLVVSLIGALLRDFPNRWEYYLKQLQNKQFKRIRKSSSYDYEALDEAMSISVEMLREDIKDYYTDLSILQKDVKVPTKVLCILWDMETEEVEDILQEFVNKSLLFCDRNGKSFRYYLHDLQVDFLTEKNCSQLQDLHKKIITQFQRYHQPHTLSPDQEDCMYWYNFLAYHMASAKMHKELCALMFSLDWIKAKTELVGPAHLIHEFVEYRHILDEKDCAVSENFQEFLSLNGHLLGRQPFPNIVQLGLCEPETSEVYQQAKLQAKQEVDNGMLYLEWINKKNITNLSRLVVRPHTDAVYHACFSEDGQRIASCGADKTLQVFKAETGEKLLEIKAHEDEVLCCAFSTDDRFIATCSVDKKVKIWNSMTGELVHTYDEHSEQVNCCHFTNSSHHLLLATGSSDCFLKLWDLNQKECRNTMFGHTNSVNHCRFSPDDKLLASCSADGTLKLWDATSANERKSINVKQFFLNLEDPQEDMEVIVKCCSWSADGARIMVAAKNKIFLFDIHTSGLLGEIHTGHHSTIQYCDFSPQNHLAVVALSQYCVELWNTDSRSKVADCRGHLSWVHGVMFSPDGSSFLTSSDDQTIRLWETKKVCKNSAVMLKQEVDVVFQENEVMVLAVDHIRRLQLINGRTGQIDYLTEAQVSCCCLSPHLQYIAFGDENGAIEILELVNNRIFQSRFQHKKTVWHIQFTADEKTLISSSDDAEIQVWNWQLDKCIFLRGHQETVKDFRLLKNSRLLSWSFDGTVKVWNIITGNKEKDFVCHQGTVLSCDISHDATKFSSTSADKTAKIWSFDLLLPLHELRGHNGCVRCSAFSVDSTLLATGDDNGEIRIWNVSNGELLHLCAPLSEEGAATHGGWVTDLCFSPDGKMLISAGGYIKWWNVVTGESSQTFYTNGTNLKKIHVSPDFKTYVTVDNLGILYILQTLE

[2] = biological target: Activated CDC42 kinase 1 (Homo sapiens, UniProt Q07912); assay: Navigating the Kinome. Panel member name: ACK1; assay type: functional
[3] = biological target: Casein kinase I isoform gamma-1 (Homo sapiens, UniProt Q9HCP0); assay type: functional;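 also: measured as the CSNK1G1 member of a kinome profiling panel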
[4] = biological target: Cyclin-dependent kinase 2 (Homo sapiens, UniProt P24941); assay type: functional;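 also: CDK2 measured as one member of a broad kinome profiling panel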
[5] = biological target: Rho-associated protein kinase 1 (Homo sapiens, UniProt Q13464); assay type: functional;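 also: measured within a broad kinome-wide panel profiling many kinases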
[6] = biological target: Serine/threonine-protein kinase pim-3 (Homo sapiens, UniProt Q86V86); assay type: functional;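 also: value obtained as one member of a broad kinase panel profiling effort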
[7] = biological target: Mitogen-activated protein kinase 12 (Homo sapiens, UniProt P53778); assay type: functional;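 also: measured as one member of a kinome-wide kinase profiling panel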
[8] = biological target: Platelet-derived growth factor receptor alpha (Homo sapiens, UniProt P16234); assay: Navigating the Kinome. Panel member name: PDGFRA; assay type: functional
[9] = biological target: Ephrin type-A receptor 2 (Homo sapiens, UniProt P29317); assay type: functional;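 also: EPHA2 tested as one member of a kinome-wide kinase panel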
[10] = biological target: Proto-oncogene tyrosine-protein kinase ROS (Homo sapiens, UniProt P08922); assay type: functional;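 also: ROS1 tested as one member of a kinome-wide kinase panel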
[11] = biological target: Tyrosine-protein kinase Lyn (Homo sapiens, UniProt P07948); assay type: functional;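 also: lyn as one member of a kinase panel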
[12] = biological target: Cyclin-dependent kinase 8 (Homo sapiens, UniProt P49336); assay: Navigating the Kinome. Panel member name: CDK8; assay type: functional
[13] = biological target: Tyrosine-protein kinase ITK/TSK (Homo sapiens, UniProt Q08881); assay type: functional;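 also: affinity for ITK measured as one member of a broad kinase panel profiling binding across the kinome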
[14] = biological target: Mast/stem cell growth factor receptor Kit (Homo sapiens, UniProt P10721); assay type: functional;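 also: KIT entry within a kinase panel assay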
[15] = biological target: T2, Sentrin-specific protease 8 (Homo sapiens, UniProt Q96LD8); assay type: functional;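 also: kinetic enzyme assay of SENP8 cleaving a Nedd8 protein substrate, dose-response confirmation of screening hits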
T2 sequence (Q96LD8 whole entry): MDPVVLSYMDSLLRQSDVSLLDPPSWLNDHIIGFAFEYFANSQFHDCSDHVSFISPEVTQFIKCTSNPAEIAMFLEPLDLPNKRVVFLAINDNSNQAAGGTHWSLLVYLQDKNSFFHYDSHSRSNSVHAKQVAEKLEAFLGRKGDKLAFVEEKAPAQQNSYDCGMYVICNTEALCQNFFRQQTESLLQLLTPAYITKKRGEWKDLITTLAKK

[16] = biological target: Induced myeloid leukemia cell differentiation protein Mcl-1 (Homo sapiens, UniProt Q07820); assay type: functional
[17] = biological target: Nonstructural protein 1 (Influenza A virus, UniProt Q194T2); assay type: functional, Influenza A virus (A/California/07/2009(H1N1))
[18] = biological target: T3, Neuropeptide Y receptor type 2 (Homo sapiens, UniProt P49146); assay: Fluorescence-based counterscreen for agonists of NPY-Y1: cell-based high-throughput dose response assay for agonists of NPY-Y2.; assay type: functional
T3 sequence (P49146 whole entry): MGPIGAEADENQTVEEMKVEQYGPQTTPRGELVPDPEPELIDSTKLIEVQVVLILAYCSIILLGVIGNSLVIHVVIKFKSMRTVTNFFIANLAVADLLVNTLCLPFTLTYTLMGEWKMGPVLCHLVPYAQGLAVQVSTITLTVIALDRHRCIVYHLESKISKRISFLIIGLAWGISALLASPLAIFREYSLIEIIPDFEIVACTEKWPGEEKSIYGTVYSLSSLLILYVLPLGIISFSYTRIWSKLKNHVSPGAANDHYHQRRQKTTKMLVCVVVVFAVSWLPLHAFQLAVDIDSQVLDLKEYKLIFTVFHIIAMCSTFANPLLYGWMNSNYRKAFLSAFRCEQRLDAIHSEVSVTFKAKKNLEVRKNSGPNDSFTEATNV

[19] = biological target: T4, Protein Tat (Human immunodeficiency virus type 1 group M subtype B (isolate HXB2)(HIV-1), UniProt P04608); assay type: functional;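 also: tat binding to TAR RNA read out by fluorescence polarization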
T4 sequence (P04608 whole entry): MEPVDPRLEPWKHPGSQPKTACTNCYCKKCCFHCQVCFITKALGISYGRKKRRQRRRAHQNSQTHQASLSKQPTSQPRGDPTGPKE

Mast/stem cell growth factor receptor Kit, sequence (P10721 whole entry): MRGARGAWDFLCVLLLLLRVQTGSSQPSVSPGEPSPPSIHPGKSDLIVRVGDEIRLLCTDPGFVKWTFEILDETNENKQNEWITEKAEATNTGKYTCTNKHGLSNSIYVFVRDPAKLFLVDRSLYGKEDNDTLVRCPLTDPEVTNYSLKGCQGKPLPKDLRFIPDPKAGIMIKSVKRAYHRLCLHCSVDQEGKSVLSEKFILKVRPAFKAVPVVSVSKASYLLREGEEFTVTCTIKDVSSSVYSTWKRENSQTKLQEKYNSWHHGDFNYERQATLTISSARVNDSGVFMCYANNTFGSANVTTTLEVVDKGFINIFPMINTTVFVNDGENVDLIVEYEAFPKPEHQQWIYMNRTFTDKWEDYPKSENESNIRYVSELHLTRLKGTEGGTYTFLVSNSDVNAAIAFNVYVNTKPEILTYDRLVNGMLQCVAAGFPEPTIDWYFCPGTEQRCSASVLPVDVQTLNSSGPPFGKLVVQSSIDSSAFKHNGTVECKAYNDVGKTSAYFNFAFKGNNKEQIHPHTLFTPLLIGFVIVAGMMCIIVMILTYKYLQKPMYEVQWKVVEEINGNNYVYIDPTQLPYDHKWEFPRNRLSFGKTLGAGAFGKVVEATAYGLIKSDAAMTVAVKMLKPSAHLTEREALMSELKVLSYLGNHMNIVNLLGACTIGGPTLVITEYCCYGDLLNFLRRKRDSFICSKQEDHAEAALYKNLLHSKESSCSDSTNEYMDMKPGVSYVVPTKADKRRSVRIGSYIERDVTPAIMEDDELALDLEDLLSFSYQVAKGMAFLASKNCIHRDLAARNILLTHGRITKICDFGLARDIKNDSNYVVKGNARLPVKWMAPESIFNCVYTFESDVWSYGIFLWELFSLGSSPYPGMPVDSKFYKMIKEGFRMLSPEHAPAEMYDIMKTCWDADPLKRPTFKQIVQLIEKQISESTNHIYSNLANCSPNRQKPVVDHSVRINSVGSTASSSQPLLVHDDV
Cyclin-dependent kinase 8, sequence (P49336 whole entry): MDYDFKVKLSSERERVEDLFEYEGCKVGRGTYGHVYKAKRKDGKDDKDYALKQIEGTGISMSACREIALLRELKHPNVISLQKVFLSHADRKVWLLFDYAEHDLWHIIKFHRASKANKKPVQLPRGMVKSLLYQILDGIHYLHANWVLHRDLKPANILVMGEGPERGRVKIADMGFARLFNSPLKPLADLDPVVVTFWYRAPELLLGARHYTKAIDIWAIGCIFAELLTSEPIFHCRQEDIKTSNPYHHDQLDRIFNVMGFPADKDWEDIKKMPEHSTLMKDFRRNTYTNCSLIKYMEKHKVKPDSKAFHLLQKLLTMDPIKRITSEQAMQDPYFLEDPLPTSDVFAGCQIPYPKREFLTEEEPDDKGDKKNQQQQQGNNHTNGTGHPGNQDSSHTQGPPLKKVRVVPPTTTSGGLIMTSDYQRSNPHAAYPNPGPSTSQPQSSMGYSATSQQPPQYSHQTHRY
Tyrosine-protein kinase Lyn, sequence (P07948 whole entry): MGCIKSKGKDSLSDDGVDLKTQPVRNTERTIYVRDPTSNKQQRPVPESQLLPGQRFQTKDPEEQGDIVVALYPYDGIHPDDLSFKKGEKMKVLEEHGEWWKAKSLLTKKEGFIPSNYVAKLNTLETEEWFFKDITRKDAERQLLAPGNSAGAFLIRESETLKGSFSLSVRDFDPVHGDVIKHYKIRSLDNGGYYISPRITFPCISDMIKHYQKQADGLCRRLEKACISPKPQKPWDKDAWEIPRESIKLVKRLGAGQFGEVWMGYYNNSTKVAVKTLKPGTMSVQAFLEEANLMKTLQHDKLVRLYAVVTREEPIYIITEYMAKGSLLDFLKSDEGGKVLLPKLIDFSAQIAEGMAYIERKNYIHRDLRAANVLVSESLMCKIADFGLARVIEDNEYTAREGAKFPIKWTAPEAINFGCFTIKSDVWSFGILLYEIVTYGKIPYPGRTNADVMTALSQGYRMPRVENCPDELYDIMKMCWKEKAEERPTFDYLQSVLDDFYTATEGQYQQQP
Ephrin type-A receptor 2, sequence (P29317 whole entry): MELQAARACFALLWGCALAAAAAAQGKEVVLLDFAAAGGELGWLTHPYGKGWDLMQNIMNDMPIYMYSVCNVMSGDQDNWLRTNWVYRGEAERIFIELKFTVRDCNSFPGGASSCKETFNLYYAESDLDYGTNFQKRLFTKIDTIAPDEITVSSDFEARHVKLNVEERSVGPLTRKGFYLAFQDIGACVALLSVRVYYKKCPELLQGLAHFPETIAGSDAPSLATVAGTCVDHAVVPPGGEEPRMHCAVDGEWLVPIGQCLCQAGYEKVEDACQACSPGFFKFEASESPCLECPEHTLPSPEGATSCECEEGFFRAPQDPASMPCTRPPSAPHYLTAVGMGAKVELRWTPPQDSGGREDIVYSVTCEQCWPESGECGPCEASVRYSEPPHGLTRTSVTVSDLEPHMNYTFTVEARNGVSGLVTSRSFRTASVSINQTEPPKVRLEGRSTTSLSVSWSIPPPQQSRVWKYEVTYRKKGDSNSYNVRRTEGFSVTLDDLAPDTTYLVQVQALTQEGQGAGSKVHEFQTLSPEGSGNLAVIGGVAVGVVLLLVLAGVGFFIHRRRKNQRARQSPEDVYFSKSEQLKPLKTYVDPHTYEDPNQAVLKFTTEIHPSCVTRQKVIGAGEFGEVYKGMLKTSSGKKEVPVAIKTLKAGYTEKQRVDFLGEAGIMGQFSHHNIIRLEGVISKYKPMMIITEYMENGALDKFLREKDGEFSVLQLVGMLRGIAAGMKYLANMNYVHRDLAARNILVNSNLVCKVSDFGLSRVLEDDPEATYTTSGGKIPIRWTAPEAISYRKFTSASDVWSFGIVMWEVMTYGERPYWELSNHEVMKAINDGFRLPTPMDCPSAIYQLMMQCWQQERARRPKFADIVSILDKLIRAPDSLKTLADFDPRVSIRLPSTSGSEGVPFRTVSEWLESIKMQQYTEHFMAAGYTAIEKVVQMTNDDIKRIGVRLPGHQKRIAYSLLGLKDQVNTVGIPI
Mitogen-activated protein kinase 12, sequence (P53778 whole entry): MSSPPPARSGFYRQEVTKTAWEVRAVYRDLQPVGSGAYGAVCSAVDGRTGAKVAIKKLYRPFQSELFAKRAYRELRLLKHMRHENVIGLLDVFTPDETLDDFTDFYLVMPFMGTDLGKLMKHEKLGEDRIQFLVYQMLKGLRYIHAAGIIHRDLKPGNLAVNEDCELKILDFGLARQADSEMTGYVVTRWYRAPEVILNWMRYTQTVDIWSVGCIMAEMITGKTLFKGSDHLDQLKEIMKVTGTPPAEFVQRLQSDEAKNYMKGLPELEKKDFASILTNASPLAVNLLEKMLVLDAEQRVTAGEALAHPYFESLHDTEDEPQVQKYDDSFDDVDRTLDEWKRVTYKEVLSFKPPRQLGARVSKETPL
Casein kinase I isoform gamma-1, sequence (Q9HCP0 whole entry, canonical isoform): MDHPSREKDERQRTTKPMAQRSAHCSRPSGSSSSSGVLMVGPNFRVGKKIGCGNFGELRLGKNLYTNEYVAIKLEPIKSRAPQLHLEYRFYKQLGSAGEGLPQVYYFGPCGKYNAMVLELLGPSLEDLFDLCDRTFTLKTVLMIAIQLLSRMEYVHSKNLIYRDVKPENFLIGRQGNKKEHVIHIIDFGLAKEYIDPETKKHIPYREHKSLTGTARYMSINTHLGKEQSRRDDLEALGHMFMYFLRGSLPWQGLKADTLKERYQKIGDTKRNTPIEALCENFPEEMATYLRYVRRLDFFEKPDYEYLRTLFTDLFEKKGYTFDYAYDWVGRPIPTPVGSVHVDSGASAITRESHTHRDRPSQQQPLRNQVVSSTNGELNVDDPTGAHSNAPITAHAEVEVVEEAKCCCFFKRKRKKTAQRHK
Induced myeloid leukemia cell differentiation protein Mcl-1, sequence (Q07820 whole entry): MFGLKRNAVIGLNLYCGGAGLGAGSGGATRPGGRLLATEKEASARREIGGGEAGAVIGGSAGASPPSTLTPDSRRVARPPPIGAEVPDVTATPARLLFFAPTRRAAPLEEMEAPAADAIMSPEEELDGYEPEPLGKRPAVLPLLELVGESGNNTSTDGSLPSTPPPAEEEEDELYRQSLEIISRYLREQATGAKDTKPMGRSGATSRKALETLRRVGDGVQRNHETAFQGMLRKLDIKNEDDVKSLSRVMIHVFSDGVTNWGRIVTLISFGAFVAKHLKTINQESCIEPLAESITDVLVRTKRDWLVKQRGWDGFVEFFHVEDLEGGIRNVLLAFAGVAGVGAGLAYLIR
Nonstructural protein 1, sequence (Q194T2 whole entry): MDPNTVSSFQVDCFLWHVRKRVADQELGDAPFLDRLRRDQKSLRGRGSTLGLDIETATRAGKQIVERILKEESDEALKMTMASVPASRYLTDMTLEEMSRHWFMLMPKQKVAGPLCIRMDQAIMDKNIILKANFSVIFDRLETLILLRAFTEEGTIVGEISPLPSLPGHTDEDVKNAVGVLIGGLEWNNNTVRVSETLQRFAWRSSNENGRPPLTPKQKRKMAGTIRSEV

Question: Which IC50 [1] does the source give for `CCOC(=O)c1c(NS(=O)(=O)c2ccccc2)n(CCCOC)c2nc3ccccc3nc12` here?
Answer: Its IC50 is 24200 nM (active).

Question: How did the Ki [2] turn out when `OC1CCC(Nc2cc(Cl)nc(-c3c[nH]c4ncccc34)n2)CC1` (centres undefined) was run?
Answer: The Ki was > 3980 nM (inactive).

Question: And the Ki [3]?
Answer: The Ki was 3160 nM (active).

Question: And the Ki [4]?
Answer: The Ki was 251 nM (active).

Question: And the Ki [5]?
Answer: The Ki was 31.6 nM (active).

Question: And the Ki [6]?
Answer: Its Ki is 1260 nM (active).

Question: What about the Ki [7] of the same molecule?
Answer: Its Ki is 1580 nM (active).

Question: And the Ki [8]?
Answer: Its Ki is > 1580 nM (inactive).

Question: What about the Ki [9] of the same molecule?
Answer: The Ki was > 3160 nM (inactive).

Question: And the Ki [10]?
Answer: The Ki was 794 nM (active).

Question: And the Ki [11]?
Answer: Its Ki is > 1000 nM (inactive).

Question: And the Ki [12]?
Answer: Its Ki is 501 nM (active).

Question: And the Ki [13]?
Answer: The Ki was > 1580 nM (inactive).

Question: What about the Ki [14] of the same molecule?
Answer: The Ki was > 2510 nM (inactive).

Question: With `O=C(COC(=O)c1ccc([N+](=O)[O-])s1)NCCc1ccccc1` as the molecule, how does the IC50 [15] read?
Answer: Its IC50 is 3230 nM (active).

Question: Which IC50 [16] does the source give for `COCC/N=c1\scc(-c2cccs2)n1/N=C/c1ccc(O)c(O)c1O` here?
Answer: The IC50 was 5170 nM (active).

Question: And the IC50 [17]?
Answer: Its IC50 is 42900 nM (active).

Question: And the EC50 [18]?
Answer: The EC50 was 19300 nM (not active).

Question: And the IC50 [19]?
Answer: The IC50 was > 100000 nM (inconclusive).
